{"source": "paper PMC4295010", "about": "(Journal of the American Chemical Society, 2014)", "key": {"HeLa cells [1]": {"tested_on": "HeLa cells", "assay": "NBD-Van staining of aggregates on HeLa cells, confocal", "type": "cell-based", "settings": "NBD-Van (6 μM) alone"}, "[2]": {"assay": "aggregation of 1 by UV absorption change of the supernatant", "type": "physicochemical", "settings": "over time, Figure S3, varying [Van]0"}, "HeLa cells [3]": {"tested_on": "HeLa cells", "assay": "MTT cell viability, HeLa", "type": "cell-based"}, "[4]": {"assay": "isothermal titration calorimetry", "type": "binding", "settings": "ITC of 2 with Van, 25 °C, Figure S6"}}, "note": "Where a SMILES comes first, the peptide text is derived from it. [ ]: non-standard residue; d: D form.", "data": [{"molecule": "7-nitrobenzofurazan-derivatized vancomycin [NBD-Van]", "values": [{"measurement": "fluorescent aggregates with HeLa cells", "setting": "HeLa cells [1]", "value": "few aggregates on the cells"}]}, {"molecule": "CN[C@H](CC(C)C)C(=O)N[C@H]1C(=O)N[C@@H](CC(N)=O)C(=O)N[C@H]2C(=O)N[C@H]3C(=O)N[C@H](C(=O)N[C@H](C(=O)O)c4cc(O)cc(O)c4-c4cc3ccc4O)[C@H](O)c3ccc(c(Cl)c3)Oc3cc2cc(c3O[C@@H]2O[C@H](CO)[C@@H](O)[C@H](O)[C@H]2O[C@H]2C[C@](C)(N)[C@H](O)[C@H](C)O2)Oc2ccc(cc2Cl)[C@H]1O", "note": "[Van, vancomycin, reference compound]", "values": [{"measurement": "amount of Van in the aggregates", "setting": "[2]", "value": "decreases with time"}, {"measurement": "cytotoxicity", "setting": "HeLa cells [3]; alone, concentration as high as 500 μM, MTT", "value": "innocuous"}]}, {"molecule": "CC(=O)N[C@@H](CCCCN)C(=O)NCC(=O)NCC(=O)N[C@H](C)C(=O)N[C@H](C)C(=O)O", "note": "[compound 2] (Ac-KGG[dA][dA]-OH)", "values": [{"measurement": "Kd", "setting": "[4]", "value": 135, "unit": "µM"}, {"measurement": "binding ratio n", "setting": "[4]", "value": 1}, {"measurement": "inhibition of proliferation", "setting": "HeLa cells [3]; with addition of Van at 500 μM", "value": "scarcely inhibits"}, {"measurement": "inhibition of proliferation", "setting": "HeLa cells [3]; without addition of Van, at 500 μM", "value": "scarcely inhibits"}]}]}
